In patent publication US6916846B2, “Coumermycin analogs as chemical dimerizers of chimeric proteins” (Merck & Co. Inc., priority 2000, dated 2005):
Read-outs that look alike come from different tables or passages of the source.

Legend:
[1] = test system: STAT5b-GyrB fusion proteins
Procedure: To evaluate the effectiveness of the analogs of the present invention to act as chemical dimerizers of chimeric proteins, a BAF cell proliferation assay was performed.
BAF Cell Proliferation Assay
We have transfected BAF Cells with the human IL2 Receptor β chain. These transfected cells respond to human IL-2 by increasing their rate of cellular proliferation. This can be assayed by measuring the amount of tritiated thymidine that these cells incorporate into their DNA. One of the signaling proteins activated by IL-2 is the transcription factor STAT5b. This activation of STAT5b is responsible, in part, for the growth-promoting effects of IL-2.
STAT5b is activated by dimerization, an event that is dependent on its phosphorylation and which requires interaction of STAT5b with a ligand bound activated receptor. We can mimic this activation of STAT5b by transfecting BAF cells with a fusion protein consisting of the GyrB domain (the24 kDa amino-terminal fragment of bacterial DNA gyrase, amino acids 2-220) fused to the carboxy-terminus of STAT5b. Addition of the symmetrically dimeric antibiotic coumermycin artificially forces the dimerization of STAT5b-GyrB fusion proteins and results in an increased rate of cell growth that can be measured by the cell's ability to incorporate thymidine. This provides an assay to determine the ability of coumermycin analogs to promote dimerization of STAT5b-GyrB fusion proteins.
The assay is run as follows: BAF cells transfected with the human IL-2 receptor β chain and STAT5b-GyrB are washed twice in phosphate-buffered saline. They are then re-suspended in BAF cell media that lacks IL-2 and placed in a 96-well plate. Increasing amounts of coumermycin, or coumermycin analogs are then added to different wells in a 96-well plate and the cells are incubated overnight. Twenty-four hours later the cell media is spiked with tritiated thymidine and the cells are incubated for an additional 16 hours. The cells are subsequently harvested with a Wallac cell harvester and the amount of tritiated thymidine incorporated is measured using a β scintillation counter.
Set up for BAF proliferation assay was as follows: Spin down cells and wash one time in PBS. Resuspended in BAF cell media without cytokine at 2×10^5 cells/ml. added 100 μl/well or 2×10^4 cells. The compounds were prepared at 2 mg/ml (equivalent to 1.8 nM±5%). Plates were set up so that each condition equaled 1 row of 12 (n=number of wells/row=12). DMSO being utilized as an initial control Compound 5 was prepared in concentrations of 1.6, 16, 163, 450, and 900 nM, and 1.8 μM in DMSO, and as a second control, IL-2 growth factor was added to coumermycin. Two novenamine anologs, Comparative Compounds (CCmpd) 1 and 2, below were also use in this example as control.
The compounds were re-suspended in dimethylsulfoxide (DMSO) at a concentration of 2 mg/ml. […] Next, the cells were washed 2 times with PBS. The re-suspended cells were present at a concentration of 1×10^5 cells /ml in BAF media (RPMI, 10% FCS (fetal calf serum), 1% NEAA (non-essential amino acid), 1% L-G-lu, P/S and Hepes) without IL-2, added 100 μl to well (equal to 1×10^4 cells/well).
The compounds were prepared in as follows: DMSO was used as a control; each of the 5 compounds were combined with DMSO at concentrations of 1.8 μM, 900 nM, 450 nM, 90 nM 9 nM, and 900 nM. As a second control, coumermycin in IL-2 was utilized. Each solution at the aforementioned concentration condition, along with BAF cells, was placed in 1 row (12 wells) of a 96 well plate. Thereafter, 100 μL of compound (twice the concentration) was added to the wells.

[2] = test system: STAT5b-GyrB fusion proteins; assay: Inhibition assay in BAF cells, all wells with 90 nM coumermycin; assay type: cell-based, murine; parameters: unit not given here; settings: Table 6
Procedure: An inhibition assay was also conducted for Compounds 1 and 2. For this assay, all wells contained a DMSO concentration of 90 nM of coumermycin. Compounds 1 and 2 were added at concentrations of 1.8 μM, 900 nM, 90 nM and 9 nM. The conditions of the assay were identical to those referenced early in this example, except that one-third of the amount of 3-H thymidine was used.

[3] = Table 3, Example 2, 900 pM, 1×10^4 cells/well
[4] = Cou. 90 nM plus inhibitor 90 nM
[5] = Cou. 90 nM plus inhibitor 900 nM
[6] = Cou. 90 nM plus inhibitor 1800 nM
[7] = Table 2, Example 1, stimulus 1.6 nM, 2×10^4 cells/well
[8] = Table 2, Example 1, stimulus 16.3 nM
[9] = Table 2, Example 1, stimulus 163 nM
[10] = Table 2, Example 1, stimulus 450 nM
[11] = Table 2, Example 1, stimulus 900 nM
[12] = Table 2, Example 1, stimulus 1.8 μM

## COC1C(OC(=O)c2ccc(C)[nH]2)C(O)C(Oc2ccc3c(O)c(NC(=O)c4ccc(C(=O)Nc5c(O)c6ccc(OC7OC(C)(C)C(OC)C(OC(=O)c8ccc(C)[nH]8)C7O)c(C)c6oc5=O)cc4)c(=O)oc3c2C)OC1(C)C (stereo not drawn) [Cmpd 8]
[1]; [3]
  Prolif. (cpm): 17973 cpm
[1]; Table 3, Example 2, 9 nM
  Prolif. (cpm): 19377 cpm
[1]; Table 3, Example 2, 90 nM
  Prolif. (cpm): 20715 cpm
[1]; Table 3, Example 2, 450 nM
  Prolif. (cpm): 22936 cpm
[1]; Table 3, Example 2, 900 nM
  Prolif. (cpm): 23858 cpm
[1]; Table 3, Example 2, 1.8 μM
  Prolif. (cpm): 22772 cpm

## COC1C(OC(=O)c2ccc(C)[nH]2)C(O)C(Oc2ccc3c(O)c(NC(=O)c4cncc(C(=O)Nc5c(O)c6ccc(OC7OC(C)(C)C(OC)C(OC(=O)c8ccc(C)[nH]8)C7O)c(C)c6oc5=O)c4)c(=O)oc3c2C)OC1(C)C (stereo not drawn) [Cmpd 4]
[1]; [3]
  Prolif. (cpm): 20204 cpm
[1]; Table 3, Example 2, 9 nM
  Prolif. (cpm): 19290 cpm
[1]; Table 3, Example 2, 90 nM
  Prolif. (cpm): 19731 cpm
[1]; Table 3, Example 2, 450 nM
  Prolif. (cpm): 20726 cpm
[1]; Table 3, Example 2, 900 nM
  Prolif. (cpm): 22817 cpm
[1]; Table 3, Example 2, 1.8 μM
  Prolif. (cpm): 23135 cpm

## COC1C(OC(=O)c2ccc(C)[nH]2)C(O)C(Oc2ccc3c(O)c(NC(=O)c4cc(C(=O)Nc5c(O)c6ccc(OC7OC(C)(C)C(OC)C(OC(=O)c8ccc(C)[nH]8)C7O)c(C)c6oc5=O)[nH]n4)c(=O)oc3c2C)OC1(C)C (stereo not drawn) [Cmpd 7]
[1]; [3]
  Prolif. (cpm): 16520 cpm
[1]; Table 3, Example 2, 9 nM
  Prolif. (cpm): 16599 cpm
[1]; Table 3, Example 2, 90 nM
  Prolif. (cpm): 17690 cpm
[1]; Table 3, Example 2, 450 nM
  Prolif. (cpm): 20553 cpm
[1]; Table 3, Example 2, 900 nM
  Prolif. (cpm): 20619 cpm
[1]; Table 3, Example 2, 1.8 μM
  Prolif. (cpm): 20207 cpm

## COC1C(OC(=O)c2ccc(C)[nH]2)C(O)C(Oc2ccc3c(O)c(NC(=O)c4cc(=O)cc(C(=O)Nc5c(O)c6ccc(OC7OC(C)(C)C(OC)C(OC(=O)c8ccc(C)[nH]8)C7O)c(C)c6oc5=O)o4)c(=O)oc3c2C)OC1(C)C (stereo not drawn) [Cmpd 1]
[2]; Cou. 90 nM plus inhibitor 9 nM
  Prolif.: 7713
[2]; [4]
  Prolif.: 7683
[2]; [5]
  Prolif.: 7597
[2]; [6]
  Prolif.: 7271
[1]; Table 4, Example 3, 900 pM
  Prolif.: 7156
[1]; Table 4, Example 3, 9 nM
  Prolif.: 7653
[1]; Table 4, Example 3, 90 nM
  Prolif.: 7487
[1]; Table 4, Example 3, 450 nM
  Prolif.: 7209
[1]; Table 4, Example 3, 900 nM
  Prolif.: 7092
[1]; Table 4, Example 3, 1.8 μM
  Prolif.: 6397
[1]; Table 7, Example 5, 900 pM
  Prolif. (cpm): 31865 cpm
[1]; Table 7, Example 5, 9 nM
  Prolif. (cpm): 34279 cpm
[1]; Table 7, Example 5, 90 nM
  Prolif. (cpm): 33933 cpm
[1]; Table 7, Example 5, 450 nM
  Prolif. (cpm): 35212 cpm
[1]; Table 7, Example 5, 900 nM
  Prolif. (cpm): 33301 cpm
[1]; Table 7, Example 5, 1.8 μM
  Prolif. (cpm): 31029 cpm

## COC1C(OC(=O)c2ccc(C)[nH]2)C(O)C(Oc2ccc3c(O)c(NC(=O)COCCOCCOCC(=O)Nc4c(O)c5ccc(OC6OC(C)(C)C(OC)C(OC(=O)c7ccc(C)[nH]7)C6O)c(C)c5oc4=O)c(=O)oc3c2C)OC1(C)C (stereo not drawn) [Cmpd 5]
[1]; [7]
  Prolif.: 15270
[1]; [8]
  Prolif.: 14277
[1]; [9]
  Prolif.: 14139
[1]; [10]
  Prolif.: 12732
[1]; [11]
  Prolif.: 12315
[1]; [12]
  Prolif.: 11751

## COC1C(OC(N)=O)C(O)C(Oc2ccc3c(O)c(NC(=O)c4cc(=O)cc(C(=O)Nc5c(O)c6ccc(OC7OC(C)(C)C(OC)C(OC(N)=O)C7O)c(C)c6oc5=O)o4)c(=O)oc3c2C)OC1(C)C (stereo not drawn) [CCmpd 3, reference compound]
[1]; Table 7, Example 5, 900 pM
  Prolif. (cpm): 32299 cpm
[1]; Table 7, Example 5, 9 nM
  Prolif. (cpm): 33921 cpm
[1]; Table 7, Example 5, 90 nM
  Prolif. (cpm): 33671 cpm
[1]; Table 7, Example 5, 450 nM
  Prolif. (cpm): 33712 cpm
[1]; Table 7, Example 5, 900 nM
  Prolif. (cpm): 31968 cpm
[1]; Table 7, Example 5, 1.8 μM
  Prolif. (cpm): 28434 cpm

## COC1C(OC(N)=O)C(O)C(Oc2ccc3c(O)c(NC(=O)COCCOCCOCC(=O)Nc4c(O)c5ccc(OC6OC(C)(C)C(OC)C(OC(N)=O)C6O)c(C)c5oc4=O)c(=O)oc3c2C)OC1(C)C (stereo not drawn) [CCmpd 2, reference compound]
[1]; [7]
  Prolif.: 14761
[1]; [8]
  Prolif.: 14459
[1]; [9]
  Prolif.: 14516
[1]; [10]
  Prolif.: 13568
[1]; [11]
  Prolif.: 12281
[1]; [12]
  Prolif.: 11676

## COC1C(OC(=O)c2ccc(C)[nH]2)C(O)C(Oc2ccc3c(O)c(NC(=O)c4ccc(Oc5ccc(C(=O)Nc6c(O)c7ccc(OC8OC(C)(C)C(OC)C(OC(=O)c9ccc(C)[nH]9)C8O)c(C)c7oc6=O)cc5)cc4)c(=O)oc3c2C)OC1(C)C (stereo not drawn) [Cmpd 2]
[2]; Cou. 90 nM plus inhibitor 9 nM
  Prolif.: 7654
[2]; [4]
  Prolif.: 7316
[2]; [5]
  Prolif.: 8068
[2]; [6]
  Prolif.: 8165
[1]; Table 5, Example 4, 900 pM
  Prolif. (cpm): 6014 cpm
[1]; Table 5, Example 4, 9 nM
  Prolif. (cpm): 6031 cpm
[1]; Table 5, Example 4, 90 nM
  Prolif. (cpm): 6623 cpm
[1]; Table 5, Example 4, 450 nM
  Prolif. (cpm): 7513 cpm
[1]; Table 5, Example 4, 900 nM
  Prolif. (cpm): 7798 cpm
[1]; Table 5, Example 4, 1.8 μM
  Prolif. (cpm): 7825 cpm
[1]; Table 7, Example 5, 900 pM
  Prolif. (cpm): 36052 cpm
[1]; Table 7, Example 5, 9 nM
  Prolif. (cpm): 38236 cpm
[1]; Table 7, Example 5, 90 nM
  Prolif. (cpm): 42674 cpm
[1]; Table 7, Example 5, 450 nM
  Prolif. (cpm): 47023 cpm
[1]; Table 7, Example 5, 900 nM
  Prolif. (cpm): 46989 cpm
[1]; Table 7, Example 5, 1.8 μM
  Prolif. (cpm): 46345 cpm

## COC1C(OC(=O)c2ccc(C)[nH]2)C(O)C(Oc2ccc3c(O)c(NC(=O)c4ccc(C(=O)Nc5c(O)c6ccc(OC7OC(C)(C)C(OC)C(OC(=O)c8ccc(C)[nH]8)C7O)c(C)c6oc5=O)s4)c(=O)oc3c2C)OC1(C)C (stereo not drawn) [Cmpd 9]
[1]; [3]
  Prolif. (cpm): 16826 cpm
[1]; Table 3, Example 2, 9 nM
  Prolif. (cpm): 18126 cpm
[1]; Table 3, Example 2, 90 nM
  Prolif. (cpm): 19177 cpm
[1]; Table 3, Example 2, 450 nM
  Prolif. (cpm): 20889 cpm
[1]; Table 3, Example 2, 900 nM
  Prolif. (cpm): 22210 cpm
[1]; Table 3, Example 2, 1.8 μM
  Prolif. (cpm): 20367 cpm

## COC1C(OC(=O)c2ccc(C)[nH]2)C(O)C(Oc2ccc3c(O)c(NC(=O)COCCOCC(=O)Nc4c(O)c5ccc(OC6OC(C)(C)C(OC)C(OC(=O)c7ccc(C)[nH]7)C6O)c(C)c5oc4=O)c(=O)oc3c2C)OC1(C)C (stereo not drawn) [Cmpd 6]
[1]; [7]
  Prolif.: 14954
[1]; [8]
  Prolif.: 14710
[1]; [9]
  Prolif.: 13351
[1]; [10]
  Prolif.: 12190
[1]; [11]
  Prolif.: 12872
[1]; [12]
  Prolif.: 10832

## COC1C(OC(N)=O)C(O)C(Oc2ccc3c(O)c(NC(=O)c4ccc(Oc5ccc(C(=O)Nc6c(O)c7ccc(OC8OC(C)(C)C(OC)C(OC(N)=O)C8O)c(C)c7oc6=O)cc5)cc4)c(=O)oc3c2C)OC1(C)C (stereo not drawn) [CCmpd 4, reference compound]
[1]; Table 7, Example 5, 900 pM
  Prolif. (cpm): 35624 cpm
[1]; Table 7, Example 5, 9 nM
  Prolif. (cpm): 35985 cpm
[1]; Table 7, Example 5, 90 nM
  Prolif. (cpm): 36764 cpm
[1]; Table 7, Example 5, 450 nM
  Prolif. (cpm): 36763 cpm
[1]; Table 7, Example 5, 900 nM
  Prolif. (cpm): 35379 cpm
[1]; Table 7, Example 5, 1.8 μM
  Prolif. (cpm): 31918 cpm

## COC1C(OC(=O)c2ccc(C)[nH]2)C(O)C(Oc2ccc3c(O)c(NC(=O)c4ccc(C(=O)Nc5c(O)c6ccc(OC7OC(C)(C)C(OC)C(OC(=O)c8ccc(C)[nH]8)C7O)c(C)c6oc5=O)nc4)c(=O)oc3c2C)OC1(C)C (stereo not drawn) [Cmpd 3]
[1]; [3]
  Prolif. (cpm): 16313 cpm
[1]; Table 3, Example 2, 9 nM
  Prolif. (cpm): 16767 cpm
[1]; Table 3, Example 2, 90 nM
  Prolif. (cpm): 19920 cpm
[1]; Table 3, Example 2, 450 nM
  Prolif. (cpm): 22221 cpm
[1]; Table 3, Example 2, 900 nM
  Prolif. (cpm): 22824 cpm
[1]; Table 3, Example 2, 1.8 μM
  Prolif. (cpm): 21389 cpm

## COC1C(OC(N)=O)C(O)C(Oc2ccc3c(O)c(NC(=O)COCCOCC(=O)Nc4c(O)c5ccc(OC6OC(C)(C)C(OC)C(OC(N)=O)C6O)c(C)c5oc4=O)c(=O)oc3c2C)OC1(C)C (stereo not drawn) [CCmpd 1, reference compound]
[1]; [7]
  Prolif.: 15741
[1]; [8]
  Prolif.: 14691
[1]; [9]
  Prolif.: 13628
[1]; [10]
  Prolif.: 12465
[1]; [11]
  Prolif.: 11935
[1]; [12]
  Prolif.: 11057

## COC1C(OC(=O)c2ccc(C)[nH]2)C(O)C(Oc2ccc3c(O)c(NC(=O)c4c[nH]c(C(=O)Nc5c(O)c6ccc(OC7OC(C)(C)C(OC)C(OC(=O)c8ccc(C)[nH]8)C7O)c(C)c6oc5=O)c4C)c(=O)oc3c2C)OC1(C)C (stereo not drawn) [Cou., coumermycin]
[2]; Cou. 90 nM with DMSO in place of inhibitor
  Prolif.: 7595
[1]; [7]
  Prolif.: 16137
[1]; [8]
  Prolif.: 16261
[1]; [9]
  Prolif.: 16836
[1]; [10]
  Prolif.: 18842
[1]; [11]
  Prolif.: 21057
[1]; [12]
  Prolif.: 23199
[1]; [3]
  Prolif. (cpm): 18071 cpm
[1]; Table 3, Example 2, 9 nM
  Prolif. (cpm): 20551 cpm
[1]; Table 3, Example 2, 90 nM
  Prolif. (cpm): 25219 cpm
[1]; Table 3, Example 2, 450 nM
  Prolif. (cpm): 27515 cpm
[1]; Table 3, Example 2, 900 nM
  Prolif. (cpm): 30752 cpm
[1]; Table 3, Example 2, 1.8 μM
  Prolif. (cpm): 30664 cpm
[1]; Table 4, Example 3, 900 pM
  Prolif.: 7422
[1]; Table 4, Example 3, 9 nM
  Prolif.: 8792
[1]; Table 4, Example 3, 90 nM
  Prolif.: 9860
[1]; Table 4, Example 3, 450 nM
  Prolif.: 10832
[1]; Table 4, Example 3, 900 nM
  Prolif.: 11470
[1]; Table 4, Example 3, 1.8 μM
  Prolif.: 12308
[1]; Table 5, Example 4, 900 pM
  Prolif. (cpm): 6063 cpm
[1]; Table 5, Example 4, 9 nM
  Prolif. (cpm): 6750 cpm
[1]; Table 5, Example 4, 90 nM
  Prolif. (cpm): 7595 cpm
[1]; Table 5, Example 4, 450 nM
  Prolif. (cpm): 8457 cpm
[1]; Table 5, Example 4, 900 nM
  Prolif. (cpm): 8636 cpm
[1]; Table 5, Example 4, 1.8 μM
  Prolif. (cpm): 8610 cpm
[1]; Table 7, Example 5, 900 pM
  Prolif. (cpm): 36503 cpm
[1]; Table 7, Example 5, 9 nM
  Prolif. (cpm): 44455 cpm
[1]; Table 7, Example 5, 90 nM
  Prolif. (cpm): 51248 cpm
[1]; Table 7, Example 5, 450 nM
  Prolif. (cpm): 60293 cpm
[1]; Table 7, Example 5, 900 nM
  Prolif. (cpm): 64831 cpm
[1]; Table 7, Example 5, 1.8 μM
  Prolif. (cpm): 68728 cpm
